Results taken from publication PMC8771711, “Synthesis of Lasalocid-Based Bioconjugates and Evaluation of Their Anticancer Activity” (ACS Omega, 2022).

Legend:
Assay type in all cases: cell-based
[1] = test system: HaCaT, human immortalized keratinocyte cell line; experiment: MTT assay, cytotoxicity in HaCaT; settings: 72 h, mean ± SD, nontumor cells
Procedure: (§1) The human cell lines SW480 (primary colon cancer), SW620 (lymph node metastatic colon cancer from the same patient as primary cancer cells), PC3 (metastatic prostate cancer), and HaCaT (immortalized keratinocytes) were obtained from the American Type Culture Collection (ATCC, Rockville, USA). The SW480 and SW620 cells were grown in MEM (ThermoSci, USA), PC3 in RPMI 1640, and HaCaT in DMEM High Glucose (Biowest SAS, France) supplemented with 10% foetal bovine serum (FBS), HEPES (20 mM), and antibiotics (100 U mL^–1 of penicillin and 100 μg mL^–1 of streptomycin). The cells were incubated in a humidified incubator at 37 °C/5% CO2, until 80–90% confluence was reached.
(§2) The cell viability was assessed by using of MTT salt [3-(4,5-dimethylthiazol-2-yl)-2,5-diphenyltetrazolium bromide] converted by mitochondrial dehydrogenase, occurring in living cells. The cells were seeded in 96-well plates at a density of 1 × 10^4 cells per well and allowed to adhere for 24 h at 37 °C in a CO2 humidified incubator. Then, the medium was removed and a fresh medium with various concentrations of tested compounds (from 10 to 120 μM) was added. The untreated cells were used as the control.
(§3) After 72 h incubation, the medium was replaced with 200 μL per well of free serum medium containing 0.5 mg mL^–1 MTT and incubated for 4 h at 37 °C in a CO2 humidified incubator. Subsequently, the medium was removed and dimethyl sulfoxide with isopropanol (1:1) was added to dissolve the formazan crystals. The optical density was measured using a UVM 340 reader (ASYS Hitech GmbH, Austria) at a wavelength of 570 nm. The experiments were repeated three times. The cell viability was calculated as the percent of MTT reduced in treated cells versus control cells (untreated cells). The number of viable cells cultured without tested compounds was assumed as 100%. The decreased relative MTT level indicates decreased cell viability. The IC50 values were estimated using CompuSyn version 1.0.

[2] = test system: SW620, human metastatic colon cancer cell line; experiment: MTT assay, cytotoxicity in SW620; settings: for IC50: MTT, 72 h, mean ± SD; for SW620 SI (selectivity index): SI = IC50 HaCaT / IC50 SW620
Procedure: as §1, §2, §3

[3] = test system: PC3, human prostate cancer cell line; experiment: MTT assay, cytotoxicity in PC3; settings: for IC50: MTT, 72 h, mean ± SD; for PC3 SI (selectivity index): SI = IC50 HaCaT / IC50 PC3
Procedure: as §1, §2, §3

[4] = test system: SW480, human primary colon cancer cell line; experiment: MTT assay, cytotoxicity in SW480; settings: for IC50: MTT, 72 h, mean ± SD; for SW480 SI (selectivity index): SI = IC50 HaCaT / IC50 SW480
Procedure: as §1, §2, §3

Compound	IC50 ([1]; Homo sapiens, HaCaT)	IC50 ([2]; Homo sapiens, SW-620)	SW620 SI (selectivity index) [2]	IC50 ([3]; Homo sapiens)	PC3 SI (selectivity index) [3]	IC50 ([4]; Homo sapiens, SW480)	SW480 SI (selectivity index) [4]	IC50 [1]	IC50 [2]	IC50 [3]	IC50 [4]
BrCCC[P+](c1ccccc1)(c1ccccc1)c1ccccc1.[Br-] [TPP, (3-bromopropyl)triphenylphosphonium bromide, reference compound]	26 ± 0.96 µM	39 ± 2.5 µM	0.7	31 ± 0.98 µM	0.8	46 ± 1.1 µM	0.6	–	–	–	–
C=C(C)[C@@H]1CC[C@]2(C(=O)OCCCCCCOC(=O)c3c(CC[C@@H](C)[C@H](O)[C@H](C)C(=O)[C@H](CC)[C@H]4O[C@](CC)([C@H]5CC[C@](O)(CC)[C@H](C)O5)C[C@@H]4C)ccc(C)c3O)CC[C@]3(C)[C@H](CC[C@@H]4[C@@]5(C)CC[C@H](O)C(C)(C)[C@@H]5CC[C@]43C)[C@@H]12 [Compound 6, LAS–Betulinic Acid Conjugate]	15 ± 0.59 µM	40 ± 2.1 µM	0.4	200 ± 1.8 µM	0.1	320 ± 8.8 µM	0.05	–	–	–	–
CC[C@@H](C(=O)[C@@H](C)[C@@H](O)[C@H](C)CCc1ccc(C)c(O)c1C(=O)OCCCCCCn1cc(F)c(=O)[nH]c1=O)[C@H]1O[C@](CC)([C@H]2CC[C@](O)(CC)[C@H](C)O2)C[C@@H]1C [Compound 9, LAS–5-Fluorouracil Conjugate]	44 ± 1.8 µM	55 ± 1.5 µM	0.8	36 ± 0.79 µM	1.2	66 ± 2.5 µM	0.7	–	–	–	–
C=C(C)[C@@H]1CC[C@]2(C(=O)O)CC[C@]3(C)[C@H](CC[C@@H]4[C@@]5(C)CC[C@H](O)C(C)(C)[C@@H]5CC[C@]43C)[C@@H]12 [BET, betulinic acid, reference compound]	108 ± 1.3 µM	65 ± 3.7 µM	1.7	71 ± 5.9 µM	1.5	105 ± 7 µM	1.0	–	–	–	–
O=c1[nH]c(=O)n([C@H]2C[C@H](O)[C@@H](CO)O2)cc1F [FLO, floxuridine, reference compound]	38 ± 0.72 µM	8.8 ± 0.69 µM	4.3	14 ± 0.57 µM	2.7	16 ± 1.2 µM	2.4	–	–	–	–
O=c1cc(CO)occ1O [KOJ, kojic acid, reference compound]	225 ± 7.1 µM	94 ± 4 µM	2.4	56 ± 3.3 µM	4.0	119 ± 2.8 µM	1.9	–	–	–	–
CC[C@@H](C(=O)[C@@H](C)[C@@H](O)[C@H](C)CCc1ccc(C)c(O)c1C(=O)OCCOCCn1cc(F)c(=O)[nH]c1=O)[C@H]1O[C@](CC)([C@H]2CC[C@](O)(CC)[C@H](C)O2)C[C@@H]1C [Compound 10, LAS–5-Fluorouracil Conjugate]	12 ± 0.59 µM	11 ± 1.4 µM	1.1	12 ± 0.13 µM	1.0	22 ± 2.2 µM	0.5	–	–	–	–
O=c1[nH]c(=O)n(CCCCBr)cc1F [Compound 1]	179 ± 4.3 µM	75 ± 2.7 µM	2.4	308 ± 5.2 µM	0.6	36 ± 0.79 µM	5.0	–	–	–	–
O=c1[nH]cc(F)c(=O)[nH]1 [5FU, 5-fluorouracil, reference compound]	52 ± 1.6 µM	39 ± 1.2 µM	1.3	11 ± 0.97 µM	4.7	43 ± 3.1 µM	1.2	–	–	–	–
O=C(CCCCCBr)[c-]1cccc1.[Fe+2].c1cc[cH-]c1 [FER, (6-bromo-1-oxohexyl)ferrocene, reference compound]	–	–	2.1	–	1.9	–	1.9	115 ± 0.95 µM	55 ± 0.7 µM	59 ± 0.78 µM	61 ± 0.98 µM
O=c1cc(CCl)occ1O [Compound 4]	39 ± 0.45 µM	20 ± 2.6 µM	2.0	20 ± 1.5 µM	2.0	28 ± 1.8 µM	1.4	–	–	–	–
O=c1[nH]c(=O)n(CCCCCCBr)cc1F [Compound 2, 1-(6-Bromohexyl)-5-fluorouracil]	224 ± 2.8 µM	36 ± 0.83 µM	6.2	3.1 ± 0.15 µM	73	103 ± 3.4 µM	2.2	–	–	–	–
CC[C@@H](C(=O)[C@@H](C)[C@@H](O)[C@H](C)CCc1ccc(C)c(O)c1C(=O)OC[C@H]1O[C@@H](n2cc(F)c(=O)[nH]c2=O)C[C@@H]1O)[C@H]1O[C@](CC)([C@H]2CC[C@](O)(CC)[C@H](C)O2)C[C@@H]1C [Compound 11, LAS–Floxuridine Conjugate]	50 ± 0.59 µM	19 ± 2 µM	2.6	13 ± 1.9 µM	3.8	31 ± 1.2 µM	1.6	–	–	–	–
COc1cccc2c1C(=O)c1c(O)c3c(c(O)c1C2=O)C[C@@](O)(C(=O)CO)C[C@@H]3O[C@H]1C[C@H](N)[C@H](O)[C@H](C)O1 [DOX, doxorubicin, reference compound]	0.29 ± 0.1 µM	–	–	0.59 ± 0.02 µM	–	0.75 ± 0.1 µM	–	–	–	–	–
CC[C@@H](C(=O)[C@@H](C)[C@@H](O)[C@H](C)CCc1ccc(C)c(O)c1C(=O)OCCCCCCBr)[C@H]1O[C@](CC)([C@H]2CC[C@](O)(CC)[C@H](C)O2)C[C@@H]1C [Compound 5]	50 ± 0.34 µM	34 ± 1.4 µM	1.5	18 ± 0.98 µM	2.8	42 ± 1.6 µM	1.2	–	–	–	–
O=c1[nH]c(=O)n(CCOCCBr)cc1F [Compound 3, 1-(2-(2-Bromoethoxy)ethyl)-5-fluorouracil]	104 ± 2.2 µM	47 ± 3.8 µM	2.2	42 ± 2.3 µM	2.5	55 ± 3.5 µM	1.9	–	–	–	–
